Our source for the IC50 values is ChEMBL document CHEMBL5729675, “Sulfonamide compound or salt thereof” (2023).

In the assay the target is Ribonucleotide reductase (Homo sapiens, UniProt P23921+Q7LG56). The assay is described as follows: Human RNR Inhibition Effect: The inhibitory activity against the ribonucleotide reduction reaction (hereinafter referred to as RNR reaction) of the test compound was determined by measuring the formation of deoxycytidine diphosphate (hereinafter referred to as dCDP) from cytidine diphosphate (hereinafter referred to as CDP) by the following method.Human M1 subunit and human M2 subunit (mutant ….
Chain of Ribonucleotide reductase (P23921 whole entry, looked up): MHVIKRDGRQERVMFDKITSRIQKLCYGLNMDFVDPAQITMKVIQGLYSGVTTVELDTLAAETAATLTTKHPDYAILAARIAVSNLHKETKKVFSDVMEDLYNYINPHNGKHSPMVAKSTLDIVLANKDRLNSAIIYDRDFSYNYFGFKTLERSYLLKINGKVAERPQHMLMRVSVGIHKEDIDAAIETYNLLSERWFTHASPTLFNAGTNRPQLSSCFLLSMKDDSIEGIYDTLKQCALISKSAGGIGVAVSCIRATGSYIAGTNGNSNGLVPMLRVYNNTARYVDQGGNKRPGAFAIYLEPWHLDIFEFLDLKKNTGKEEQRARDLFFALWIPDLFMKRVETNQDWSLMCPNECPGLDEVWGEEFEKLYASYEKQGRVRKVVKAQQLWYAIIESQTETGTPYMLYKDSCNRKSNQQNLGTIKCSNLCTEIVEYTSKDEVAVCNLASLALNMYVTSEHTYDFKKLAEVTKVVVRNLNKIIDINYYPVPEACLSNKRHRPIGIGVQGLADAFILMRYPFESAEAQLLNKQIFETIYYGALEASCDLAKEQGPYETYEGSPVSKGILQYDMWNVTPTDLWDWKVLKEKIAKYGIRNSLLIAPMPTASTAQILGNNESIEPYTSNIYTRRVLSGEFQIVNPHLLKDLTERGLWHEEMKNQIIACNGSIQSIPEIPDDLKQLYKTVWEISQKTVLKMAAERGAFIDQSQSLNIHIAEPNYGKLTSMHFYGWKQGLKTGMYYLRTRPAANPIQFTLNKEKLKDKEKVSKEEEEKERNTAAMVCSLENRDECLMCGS
Chain of Ribonucleotide reductase (Q7LG56 whole entry, looked up): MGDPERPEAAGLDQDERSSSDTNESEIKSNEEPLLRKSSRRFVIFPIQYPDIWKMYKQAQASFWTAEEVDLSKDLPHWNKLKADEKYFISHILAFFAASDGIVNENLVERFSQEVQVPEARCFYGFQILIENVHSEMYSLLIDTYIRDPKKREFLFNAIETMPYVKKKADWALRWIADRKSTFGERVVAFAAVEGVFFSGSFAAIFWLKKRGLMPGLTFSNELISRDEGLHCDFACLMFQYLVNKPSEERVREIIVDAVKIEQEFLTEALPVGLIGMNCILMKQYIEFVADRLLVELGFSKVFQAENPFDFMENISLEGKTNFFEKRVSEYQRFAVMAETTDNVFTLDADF

Take `Cc1cccc([C@@H](C)[C@H](NS(=O)(=O)c2ccc(Br)cc2C(N)=O)c2n[nH]c(=O)o2)c1C`: the half-inhibitory concentration (IC50) is 380 nM.

Take `COc1cc(Cl)ccc1S(=O)(=O)N[C@H](c1n[nH]c(=O)o1)[C@H](C)c1c(F)ccc(-c2c[nH]nc2C)c1C`: the IC50 was determined as 180 nM.

In turn, `COc1c(S(=O)(=O)N[C@H](c2n[nH]c(=O)o2)[C@H](C)c2c(F)ccc(C)c2C)ccc(Cl)c1C(C)(C)OC(C)=O` returned an IC50 of 430 nM.

`Cc1ccc(F)c([C@@H](C)[C@H](NS(=O)(=O)c2cc(C(C)(C)O)ccc2C(N)=O)c2n[nH]c(=O)o2)c1C`: the IC50 worked out at 60 nM.

Regarding `Cc1ccc(F)c([C@@H](C)[C@H](NS(=O)(=O)c2ccc(Cl)cc2C(=O)N2CCC2)c2n[nH]c(=O)o2)c1C`, the IC50 came out at 410 nM.

In turn, `Cc1ccc(F)c([C@@H](C)[C@H](NS(=O)(=O)c2ccc(Cl)c(C(=O)N3C4CCC3COC4)n2)c2n[nH]c(=O)o2)c1C` showed an IC50 of 70 nM.

Consider `Cc1ccc(F)c([C@@H](C)[C@H](NS(=O)(=O)c2ccc(F)c(C(C)(C)O)c2F)c2n[nH]c(=O)o2)c1C`, for which the IC50 came out at 90 nM.

`COc1cc(Cl)ccc1S(=O)(=O)N[C@H](c1n[nH]c(=O)o1)[C@H](C)c1cccc2c1CC(C)C2` (some centres not stated) returned an IC50 of 700 nM.

On to `C[C@H](c1cc(F)cc2ccccc12)[C@H](NS(=O)(=O)c1ccc(Cl)cc1C(N)=O)c1n[nH]c(=O)o1`, for which 600 nM corresponded to half-maximal inhibition (IC50).

For the molecule `Cc1ccc(F)c([C@@H](C)[C@H](NS(=O)(=O)c2ccc(Cl)cc2C(=O)NO)c2n[nH]c(=O)o2)c1C`, the IC50 came to 70 nM.

`Cc1ccc(F)c([C@@H](C)[C@H](NS(=O)(=O)c2c(Cl)cc(Cl)cc2C(N)=O)c2n[nH]c(=O)o2)c1C` gave an IC50 of 420 nM.

The molecule `Cc1ccc(F)c([C@@H](C)[C@H](NS(=O)(=O)c2cc(C(=O)N(C)C)c(Cl)cc2C(N)=O)c2n[nH]c(=O)o2)c1C` yielded an IC50 of 40 nM.

Consider `COc1c(S(=O)(=O)N[C@H](c2n[nH]c(=O)o2)[C@H](C)c2c(F)ccc(C)c2C)ccc(Cl)c1C(C)=O`, for which the IC50 came out at 110 nM.

As for `Cc1c(F)ccc(F)c1[C@@H](C)[C@H](NS(=O)(=O)c1ccc(Cl)cc1C(N)=O)c1n[nH]c(=O)o1`, the IC50 was 500 nM.

The molecule `C[C@H](c1cccc2c1Cc1ccccc1-2)[C@H](NS(=O)(=O)c1ccc(Br)cn1)c1n[nH]c(=O)o1` yielded an IC50 of 800 nM.

For `COc1cc(Cl)ccc1S(=O)(=O)N[C@H](c1n[nH]c(=O)o1)[C@H](C)c1c(F)ccc(-c2cn[nH]c2)c1C`, the midpoint of inhibition, the IC50, lay at 160 nM.

`Cc1ccc(S(=O)(=O)N[C@H](c2n[nH]c(=O)o2)[C@H](C)c2c(F)ccc(C)c2C)cc1S(=O)(=O)N1CCCCC1` displayed an IC50 of 470 nM.

As for `CCn1cc(-c2ccc(F)c([C@@H](C)[C@H](NS(=O)(=O)c3ccc(Cl)cc3OC)c3n[nH]c(=O)o3)c2C)cn1`, 170 nM corresponded to half-maximal inhibition (IC50).

`COc1cc(Cl)ccc1S(=O)(=O)N[C@H](c1n[nH]c(=O)o1)[C@H](C)c1c(F)ccc(C#N)c1C` registered an IC50 of 840 nM.

For the molecule `COc1cc(Cl)ccc1S(=O)(=O)N[C@H](c1n[nH]c(=O)o1)[C@H](C)c1c(F)ccc(-c2cncc(C(=O)N3CCOCC3)c2)c1C`, half-maximal inhibition (IC50) was put at 420 nM.

With `Cc1ccc(F)c([C@@H](C)[C@H](NS(=O)(=O)c2ccc(Cl)cc2OCC(F)F)c2n[nH]c(=O)o2)c1C`, the IC50 came out at 440 nM.

In the case of `CCc1ccc(S(=O)(=O)N[C@H](c2n[nH]c(=O)o2)[C@H](C)c2c(F)ccc(C)c2C)c(C(N)=O)c1`, inhibition was half-maximal at 130 nM (IC50).

For `CC(=O)OC1(C)CCOc2c(S(=O)(=O)N[C@H](c3n[nH]c(=O)o3)[C@H](C)c3c(F)ccc(Br)c3C)ccc(Cl)c21` (some centres not stated), the midpoint of inhibition, the IC50, lay at 80 nM.

Molecule `Cc1ccc(F)c([C@@H](C)[C@H](NS(=O)(=O)c2ccc(Br)cc2OC(F)(F)F)c2n[nH]c(=O)o2)c1C` came in with an IC50 of 100 nM.

For the molecule `Cc1ccc(F)c([C@@H](C)[C@H](NS(=O)(=O)c2cc(F)c(Cl)cc2C(N)=O)c2n[nH]c(=O)o2)c1C`, half-maximal inhibition (IC50) required 120 nM.

The molecule `Cc1ccc(F)c([C@@H](C)[C@H](NS(=O)(=O)c2ccc(C#N)cc2)c2n[nH]c(=O)o2)c1C` had an IC50 of 410 nM.

Molecule `CC(O)c1nc(S(=O)(=O)N[C@H](c2n[nH]c(=O)o2)[C@H](C)c2cccc3c2CCC3)ccc1Cl` (some centres not stated) displayed an IC50 of 400 nM.

As to `Cc1ccc(F)c([C@@H](C)[C@H](NS(=O)(=O)c2ccc(Cl)s2)c2n[nH]c(=O)o2)c1C`, the IC50 came to 450 nM.

As for `COc1cc(Cl)ccc1S(=O)(=O)N[C@H](c1n[nH]c(=O)o1)[C@H](C)c1c(F)ccc(-c2ccc(N3CCCCC3)nc2)c1C`, the IC50 came out at 600 nM.

For the molecule `Cc1ccc(F)c([C@@H](C)[C@H](NS(=O)(=O)c2ccc3c(c2)N(C)CCC3)c2n[nH]c(=O)o2)c1C`, 220 nM corresponded to half-maximal inhibition (IC50).

Regarding `Cc1ccc(F)c([C@@H](C)[C@H](NS(=O)(=O)c2ccc(Cl)c(C(=O)O)n2)c2n[nH]c(=O)o2)c1C`, the 50% inhibitory concentration (IC50) was found to be 190 nM.

Regarding `Cc1cc(F)cc([C@@H](C)[C@H](NS(=O)(=O)c2ccc(Cl)cc2C(N)=O)c2n[nH]c(=O)o2)c1C`, half-maximal inhibition (IC50) required 450 nM.

`COC(=O)c1cc(Cl)ccc1S(=O)(=O)N[C@H](c1n[nH]c(=O)o1)[C@H](C)c1c(F)ccc(C)c1C` came in with a 50% inhibitory concentration (IC50) of 410 nM.

`Cc1ccc(F)c([C@@H](C)[C@H](NS(=O)(=O)c2c(F)cc(Cl)cc2C(=O)O)c2n[nH]c(=O)o2)c1C` displayed an IC50 of 270 nM.

Consider `Cc1ccc(F)c([C@@H](C)[C@H](NS(=O)(=O)c2cc(OCC(F)F)ccc2C(N)=O)c2n[nH]c(=O)o2)c1C`, for which the IC50 is 70 nM.

Regarding `COc1cc(Cl)ccc1S(=O)(=O)N[C@H](c1n[nH]c(=S)[nH]1)[C@H](C)c1c(F)ccc(C)c1C`, the IC50 was determined as 460 nM.

Regarding `COc1cc(C(N)=O)ccc1S(=O)(=O)N[C@H](c1n[nH]c(=O)o1)[C@H](C)c1c(F)ccc(C)c1C`, inhibition was half-maximal at 420 nM (IC50).

For `Cc1ccc(F)c([C@@H](C)[C@H](NS(=O)(=O)c2ccc(C(F)(F)F)cc2C(N)=O)c2n[nH]c(=O)o2)c1C`, the half-inhibitory concentration (IC50) worked out at 100 nM.

The molecule `COc1c(S(=O)(=O)N[C@H](c2n[nH]c(=O)o2)[C@H](C)c2c(F)ccc(C)c2C)ncc(Cl)c1C(C)O` (some centres not stated) gave an IC50 of 200 nM.

Turning to `Cc1ccc(F)c([C@@H](C)[C@H](NS(=O)(=O)c2ccc(Cl)c(-c3nnn[nH]3)c2)c2n[nH]c(=O)o2)c1C`, it took 280 nM to reach half-maximal inhibition (IC50).

`COc1ccc(-c2ccc(F)c([C@@H](C)[C@H](NS(=O)(=O)c3ccc(Cl)cc3OC)c3n[nH]c(=O)o3)c2C)cn1` came in with an IC50 of 260 nM.

As for `Cc1ccc(F)c([C@@H](C)[C@H](NS(=O)(=O)c2ncc(Br)cc2C(N)=O)c2n[nH]c(=O)o2)c1C`, the IC50 came out at 20 nM.

Molecule `Cc1ccc(F)c([C@@H](C)[C@H](NS(=O)(=O)c2ccc(Cl)c3c2OCCC3=O)c2n[nH]c(=O)o2)c1C` gave an IC50 of 150 nM.

`Cc1cc(F)c(F)c([C@@H](C)[C@H](NS(=O)(=O)c2ccc(Cl)cc2C(N)=O)c2n[nH]c(=O)o2)c1C`: the IC50 was 140 nM.

For the molecule `C[C@H](c1cccc2ccccc12)[C@H](NS(=O)(=O)c1ccc(Cl)cc1Cl)c1n[nH]c(=O)o1`, the IC50 is 840 nM.

The molecule `Cc1ccc(F)c([C@@H](C)[C@H](NS(=O)(=O)c2ccc(F)c(S(C)(=O)=O)c2)c2n[nH]c(=O)o2)c1C` displayed an IC50 of 190 nM.

Regarding `Cc1ccc(F)c([C@@H](C)[C@H](NS(=O)(=O)c2ccc(Cl)c3c2OCCN3)c2n[nH]c(=O)o2)c1C`, the concentration for half-maximal inhibition (IC50) was 100 nM.

As for `COc1cc(Cl)ccc1S(=O)(=O)N[C@H](c1n[nH]c(=O)o1)[C@H](C)c1c(F)ccc(-c2ccc(N3CCOCC3)nc2)c1C`, inhibition was half-maximal at 190 nM (IC50).

In turn, `CCc1ccc(F)c([C@@H](C)[C@H](NS(=O)(=O)c2ccc(Br)cc2C(N)=O)c2n[nH]c(=O)o2)c1C` registered an IC50 of 100 nM.

`Cc1ccc(F)c([C@@H](C)[C@H](NS(=O)(=O)c2ccc(Cl)c(C(C)(C)O)n2)c2n[nH]c(=O)o2)c1C`: the IC50 was 90 nM.

Molecule `COc1c(S(=O)(=O)N[C@H](c2n[nH]c(=O)o2)[C@H](C)c2c(F)ccc(C)c2C)ccc(Cl)c1C(C)(C)O` had a 50% inhibitory concentration (IC50) of 110 nM.

Turning to `Cc1ccc(F)c([C@@H](C)[C@H](NS(=O)(=O)c2cccc3c2OCCC3(O)C(F)(F)F)c2n[nH]c(=O)o2)c1C` (some centres not stated), the concentration for half-maximal inhibition (IC50) was determined as 120 nM.

Molecule `C[C@H](c1cccc2c1CCC2)[C@H](NS(=O)(=O)c1ccc(Br)cc1F)c1n[nH]c(=O)o1` had an IC50 of 990 nM.

Regarding `COc1cc(Cl)ccc1S(=O)(=O)N[C@H](c1n[nH]c(=O)o1)[C@H](C)c1c(F)ccc(-c2ccc(Cl)nc2)c1C`, the IC50 was determined as 340 nM.

With `Cc1ccc(F)c([C@@H](C)[C@H](NS(=O)(=O)c2ccc3c(c2)C(=O)CCO3)c2n[nH]c(=O)o2)c1C`, inhibition was half-maximal at 280 nM (IC50).

`Cc1ccc(F)c([C@@H](C)[C@H](NS(=O)(=O)c2cc3c(cc2C(=O)O)OCCO3)c2n[nH]c(=O)o2)c1C` had a half-maximal inhibitory concentration (IC50) of 790 nM.

As to `CC1CCc2cccc(C(C)[C@H](NS(=O)(=O)c3ccc(Br)cn3)c3n[nH]c(=O)o3)c21` (some centres not stated), the IC50 came to 600 nM.

Consider `Cc1ccc(F)c([C@@H](C)[C@H](NS(=O)(=O)c2ncc(Br)cc2C(=O)O)c2n[nH]c(=O)o2)c1C`, for which the midpoint of inhibition, the IC50, lay at 990 nM.

Regarding `Cc1ccc(F)c([C@@H](C)[C@H](NS(=O)(=O)c2ccc(Cl)c(C(=O)N3CCC4(CC3)COC4)n2)c2n[nH]c(=O)o2)c1C`, the IC50 came out at 80 nM.

With `COC(=O)c1cc(Cl)c(N)cc1S(=O)(=O)N[C@H](c1n[nH]c(=O)o1)[C@H](C)c1c(F)ccc(C)c1C`, the IC50 was found to be 660 nM.

For the molecule `Cc1ccc(F)c([C@@H](C)[C@H](NS(=O)(=O)c2ccc(Cl)cc2C(=O)NCCO)c2n[nH]c(=O)o2)c1C`, it took 270 nM to reach half-maximal inhibition (IC50).

Regarding `Cc1ccc(F)c([C@@H](C)[C@H](NS(=O)(=O)c2ccc(Cl)cc2C(=O)NOCc2ccccc2)c2n[nH]c(=O)o2)c1C`, half-maximal inhibition (IC50) required 910 nM.

Molecule `COc1cc(Cl)cnc1S(=O)(=O)N[C@H](c1n[nH]c(=O)o1)[C@H](C)c1c(F)ccc(C)c1C` had an IC50 of 150 nM.

For the molecule `Cc1ccc(F)c([C@@H](C)[C@H](NS(=O)(=O)c2ccc3c(c2)C(=O)CCC3)c2n[nH]c(=O)o2)c1C`, the IC50 worked out at 350 nM.

The molecule `Cc1cccc2cccc([C@@H](C)[C@H](NS(=O)(=O)c3ccc(Cl)c4c3OCCC4O)c3n[nH]c(=O)o3)c12` (some centres not stated) came in with an IC50 of 230 nM.

As for `Cc1ccc(F)c([C@@H](C)[C@H](NS(=O)(=O)c2ccc(Cl)c3c2OCCN3CC(F)F)c2n[nH]c(=O)o2)c1C`, half-maximal inhibition (IC50) was put at 140 nM.

In turn, `COc1c(S(=O)(=O)N[C@H](c2n[nH]c(=O)o2)[C@H](C)c2c(F)ccc3ccccc23)ccc(Cl)c1C(C)O` (some centres not stated) registered an IC50 of 80 nM.

A word on the IC50: it is the concentration needed to halve the response being measured. A high value points to lower potency.
